Test results from patent publication US20190002480A1, “Silane-Containing Heterocyclic Compounds and Methods of Use Thereof for the Treatment of Viral Diseases” (Merck Sharp & Dohme Corp., priority 2015, published 2019).
Read-outs that look alike come from different tables or passages of the source.

Key:
HCV replicon GT1a_Q30R = experiment: Cell-based HCV replicon assay, GT1a Q30R; details: Hepatitis C virus, 72 h, read-out: GT1a_Q30R EC90
Method: (§1) To measure cell-based anti-HCV activity of compounds of the present invention, two complimentary assays were employed using various replicons. In the first assay (“Replicon Assay A”), replicon cells were seeded at 2000 cells/well in 384-well 384-well flat bottom tissue culture treated clear bottom plate (Corning 3707) in the presence of the test compound. Various concentrations of test compound, typically in 10 serial dilutions, were added to the assay mixture, with the starting concentration ranging from 333.3 nM to […]. The final concentration of DMSO was 0.5%. Fetal bovine serum was 5%, in the assay media. Cells were harvested on day 3 by removing media and washing the cells with a suitable wash buffer. The cells are lysed with the addition of 1× Qiagen lysis buffer (Cat #1062731). The replicon RNA level was measured using real time PCR (TaqMan® EZ RT-PCR, Applied Biosystems 403028) with the following primers and probes: […]
(§2) Cyclophilin RNA was used as endogenous control and was amplified in the same reaction as NS5B (multiplex PCR). The real-time RT-PCR reactions were run on ABI PRISM 7900HT Sequence Detection System using the following program: 50° C. for 2 minutes, 60° C. for 30 minutes, 95° C. for 5 minutes, 40 cycles of 94 C for 20 sec, 55 C for 1 minutes.
(§3) The amount of HCV replicon RNA per cell is quantified using a linear regression curve for a known nanogram (ng) amount of HCV replicon total RNA. This is established by plotting the Cycle Threshold values (Ct) from the Neo probe and primer set versus the log (ng) for each HCV replicon total RNA standard. The amount of HCV RNA for each replicon sample is calculated by taking the sample's Ct value, minus the line intercept, divided by the slope of the line. Similarly, the amount of Cyclophilin mRNA per cell is also quantified using a linear regression curve for a known nanogram (ng) amount of HCV replicon total RNA. Again, this is established by plotting the Cycle Threshold values (Ct) from the Cyclophilin probe and primer set versus the log (ng) for each HCV replicon total RNA standard.
(§4) In an alternate assay (“Replicon Assay B”), 1000 cells were seeded per well in a 384-well collagen coated black plate from Greiner bio-one (Cat #781946) in 5% FBS. Inhibitors of this invention were added at 24 h post-seeding, and the plates were incubated for 3 days. Cells were subsequently lysed with Qiagen lysis buffer (Cat #1062731) to extract the RNA. HCV replicon RNA level was measured by real-time PCR using the RNA-to-CT kit from Applied Biosystem (Cat #4392656) and genotype-specific primers and probes. The amplicon was located within NS5B. The sequence of the PCR primers are as follows: 5B.2F, ATGGACAGGCGCCCTGA (SEQ. ID NO. 1); 5B.2R, […] (SEQ. ID NO. 2); the probe sequence was FAM-labeled CACGCCATGCGCTGCGG (SEQ. ID NO. 3). To detect genotype 1A the primer 1A F, TGCGGAACCGGTGAGTACA and 1A R, […] were used; the probe sequence was FAM-[…].
(§5) The real-time RT-PCR reactions were run on ABI PRISM 7900HT or Viia7 Sequence Detection System using the following program: 48° C. for 30 minutes, 95 C for 10 minutes, 40 cycles of 95 C for 15 sec, 60 C for 1 minutes. The 50% effective concentration (EC50) was the drug concentration necessary to achieve an increase in the cycle threshold (CT) of 1 over the projected baseline CT. The EC90 was the drug concentration necessary to achieve an increase in CT of 3.2 over the projected baseline CT.

HCV replicon GT2a = experiment: Cell-based HCV replicon assay, GT2a; details: Hepatitis C virus, 72 h, read-out: GT2a EC90
Method: as §1, §2, §3, §4, §5

HCV replicon GT1a_L31V = experiment: Cell-based HCV replicon assay, GT1a L31V; details: Hepatitis C virus, 72 h, read-out: GT1a_L31V EC90
Method: as §1, §2, §3, §4, §5

HCV replicon GT2b_31M = experiment: Cell-based HCV replicon assay, GT2b 31M; details: Hepatitis C virus, 72 h, read-out: GT2b_31M EC90
Method: as §1, §2, §3, §4, §5

HCV replicon GT3a_Y93H = experiment: Cell-based HCV replicon assay, GT3a Y93H; details: Hepatitis C virus, 72 h, read-out: GT3a_Y93H EC90
Method: as §1, §2, §3, §4, §5

HCV replicon GT1a_Y93H = experiment: Cell-based HCV replicon assay, GT1a Y93H; details: Hepatitis C virus, 72 h, read-out: GT1a_Y93H EC90
Method: as §1, §2, §3, §4, §5

HCV replicon GT5 = experiment: Cell-based HCV replicon assay, GT5; details: Hepatitis C virus, GT5, 72 h; replicon RNA level by real-time PCR, 3 days
Method: as §1, §2, §3, §4, §5

HCV replicon GT6 = experiment: Cell-based HCV replicon assay, GT6; details: Hepatitis C virus, GT6, 72 h; replicon RNA level by real-time PCR, 3 days
Method: as §1, §2, §3, §4, §5

HCV replicon GT3a_WT = experiment: Cell-based HCV replicon assay, GT3a WT; details: Hepatitis C virus, 72 h; replicon RNA level by real-time PCR, 3 days
Method: as §1, §2, §3, §4, §5

HCV replicon GT4 = experiment: Cell-based HCV replicon assay, GT4; details: Hepatitis C virus, GT4, 72 h; replicon RNA level by real-time PCR, 3 days
Method: as §1, §2, §3, §4, §5

HCV replicon GT1b_WT = experiment: Cell-based HCV replicon assay, GT1b WT; details: Hepatitis C virus, 72 h, read-out: GT1b_WT EC90
Method: as §1, §2, §3, §4, §5

[1] = replicon RNA level by real-time PCR, 3 days

Row | Compound | EC90 (HCV replicon GT1a_Q30R) [nM] | EC90 (HCV replicon GT2a) [nM] | EC90 (HCV replicon GT1a_L31V) [nM] | EC90 (HCV replicon GT2b_31M) [nM] | EC90 (HCV replicon GT3a_Y93H) [nM] | EC90 (HCV replicon GT1a_Y93H) [nM] | EC90 (HCV replicon GT5) [nM] | EC90 (HCV replicon GT6) [nM] | EC90 (HCV replicon GT3a_WT) [nM] | EC90 (HCV replicon GT4) [nM] | EC90 (HCV replicon GT1b_WT) [nM] | EC90 (HCV replicon GT1b_WT; [1]) [nM] | EC90 (HCV replicon GT2a; [1]) [nM]
1 | COC(=O)N[C@H](C(=O)N1CCC[C@H]1c1ncc(-c2cc(F)c3c(c2)O[C@@H](c2cnc(C4CC4)s2)n2c-3cc3cc(-c4cnc([C@@H]5C[Si](C)(C)CN5C(=O)[C@@H](NC(=O)OC)C(C)C)[nH]4)ccc32)[nH]1)C(C)C [Compound 1] | 0.0193 | 0.00278 | 0.0568 | 2.43 | 393 | 0.231 | 0.0056 | 0.0059 | 1.77 | – | – | – | –
2 | COC(=O)NC(C(=O)N1C[Si](C)(C)C[C@H]1c1ncc(-c2ccc3c(c2)cc2n3[C@H](c3cnc(C4CC4)s3)Oc3cc(-c4cnc([C@@H]5CCCN5C(=O)[C@@H](NC(=O)OC)C(C)C)[nH]4)cc(F)c3-2)[nH]1)C1CCOCC1 (some centres unmarked) [Compound 2] | 0.0043 | – | 0.003 | 0.231 | 168 | 0.062 | 0.0041 | 0.0044 | 0.17 | – | – | – | –
3 | COC(=O)N[C@H](C(=O)N1CCC[C@H]1c1ncc(-c2cc(F)c3c(c2)O[C@@H](c2cnc(C4CC4)s2)n2c-3cc3cc(-c4cnc([C@@H]5C[Si](C)(C)CN5C(=O)[C@@H](NC(=O)OC)[C@@H]5CCOC(C)(C)C5)[nH]4)ccc32)[nH]1)C(C)C [Compound 3] | 0.008 | 0.00167 | 0.0097 | 0.431 | 370 | 0.079 | 0.0073 | 0.0076 | 0.285 | 0.00112 | 0.001 | – | –
4 | CNC(C(=O)N1C[Si](C)(C)C[C@H]1c1ncc(-c2ccc3c(c2)cc2n3[C@H](c3cnc(C4CC4)s3)Oc3cc(-c4cnc([C@@H]5CCCN5C(=O)[C@@H](NC(=O)OC)C(C)C)[nH]4)cc(F)c3-2)[nH]1)c1ccccc1 (some centres unmarked) [Compound 5] | 0.0155 | – | 0.0359 | 0.378 | 110 | 0.33 | 0.0086 | 0.0088 | 0.257 | – | – | 0.0021 | –
5 | COC(=O)N[C@H](C(=O)N1CCC[C@H]1c1ncc(-c2ccc3c(c2)cc2n3[C@H](c3cnc(C4CC4)s3)Oc3cc(-c4cnc([C@@H]5C[Si](C)(C)CN5C(=O)[C@@H](NC(=O)OC)C(C)C)[nH]4)cc(F)c3-2)[nH]1)C(C)C [Compound 6] | 0.0729 | 0.00339 | 0.0599 | 3.04 | 118 | 0.199 | 0.0069 | 0.0057 | 1.32 | 0.00135 | 0.00116 | – | –
6 | COC(=O)NC(C(=O)N1CCC[C@H]1c1ncc(-c2ccc3c(c2)cc2n3[C@H](c3cnc(C4CC4)s3)Oc3cc(-c4cnc([C@@H]5C[Si](C)(C)CN5C(=O)[C@@H](NC(=O)OC)C5CCCCC5)[nH]4)cc(F)c3-2)[nH]1)C(C)C (some centres unmarked) [Compound 7] | 0.0039 | 0.00177 | 0.0045 | 0.132 | 82 | 0.022 | 0.0246 | 0.0906 | 0.051 | 0.00147 | 0.00244 | – | –
7 | COC(=O)NC(C(=O)N1CCC[C@H]1c1ncc(-c2ccc3c(c2)cc2n3[C@H](c3cnc(C4CC4)s3)Oc3cc(-c4cnc([C@@H]5C[Si](C)(C)CN5C(=O)[C@@H](NC(=O)OC)[C@@H]5CCOC(C)(C)C5)[nH]4)cc(F)c3-2)[nH]1)C(C)C (some centres unmarked) [Compound 8] | 0.0056 | 0.00118 | 0.0088 | 1.12 | 133 | 0.271 | 0.0072 | 0.0079 | 0.709 | 0.00103 | – | – | –
8 | COC(=O)NC(C(=O)N1CCC[C@H]1c1ncc(-c2ccc3c(c2)cc2n3[C@H](c3cnc(C4CC4)s3)Oc3cc(-c4cnc([C@@H]5C[Si](C)(C)CN5C(=O)[C@H](N)c5ccccc5)[nH]4)cc(F)c3-2)[nH]1)C(C)C (some centres unmarked) [Compound 10] | 0.387 | – | 0.859 | 12 | 126 | 4.28 | 0.0139 | 0.008 | 5.48 | – | – | 0.00142 | 0.00246
9 | CN[C@@H](C(=O)N1C[Si](C)(C)C[C@H]1c1ncc(-c2cc(F)c3c(c2)O[C@@H](c2cnc(C4CC4)s2)n2c-3cc3cc(-c4cnc([C@@H]5CCCN5C(=O)C(NC(=O)OC)C(C)C)[nH]4)ccc32)[nH]1)c1ccccc1 (some centres unmarked) [Compound 11] | 0.0318 | – | 0.0963 | 0.705 | 74 | 0.933 | 0.0098 | 0.0066 | 0.347 | – | – | 0.00154 | 0.001
10 | COC(=O)N[C@H](C(=O)N1CCC[C@H]1c1ncc(-c2cc(F)c3c(c2)O[C@@H](c2cnc(C4CC4)s2)n2c-3cc3cc(-c4cnc([C@@H]5C[Si](C)(C)CN5C(=O)C(N)c5ccccc5)[nH]4)ccc32)[nH]1)C(C)C (some centres unmarked) [Compound 12] | 0.0776 | – | 0.149 | 0.061 | 155 | 0.334 | 0.0144 | 0.0863 | 0.036 | – | – | 0.00141 | 0.00152
11 | COC(=O)N[C@H](C(=O)N1CCC[C@H]1c1ncc(-c2cc(F)c3c(c2)O[C@@H](c2ccc(C4CC4)s2)n2c-3cc3cc(-c4cnc([C@@H]5C[Si](C)(C)CN5C(=O)[C@@H](N)c5ccccc5)[nH]4)ccc32)[nH]1)C(C)C [Compound 18] | 0.0372 | – | 0.0681 | 0.062 | 206 | 1.22 | 0.0068 | 0.0084 | 0.027 | – | – | 0.00111 | –
12 | CNC(C(=O)N1C[Si](C)(C)C[C@H]1c1ncc(-c2ccc3c(c2)cc2n3[C@H](c3ccc(C4CC4)s3)Oc3cc(-c4cnc([C@@H]5CCCN5C(=O)[C@@H](NC(=O)OC)C(C)C)[nH]4)cc(F)c3-2)[nH]1)c1ccccc1 (some centres unmarked) [Compound 19] | 0.0053 | – | 0.0106 | 0.092 | 109 | 0.219 | 0.0048 | 0.0047 | 0.056 | – | – | – | –
